Assay results published in US6235493A, “Amino acid substituted-cresyl violet, synthetic fluorogenic substrates for the analysis of agents in individual in vivo cells or tissue” (priority 1998, dated 2001).

Columns and labels:
cathepsin B [1] = biological target: T1, cathepsin B (Rattus norvegicus, UniProt P00787); assay: Cathepsin B activity in living CC531 colon cancer cells (CSLM, (Z-Arg)^2 -cresyl violet); assay type: cell-based; conditions: living CC531 cells, 10 μM substrate (printed μm), 5 min, PBS
Protocol: An established rat colon carcinoma cell line, CC531, was used for all experiments. The parental cell line was obtained from a 1,2-dimethylhydrazine-induced moderately differentiated and weakly immunogenic colon adenocarcinoma in WAG-Rij rats (44). Cells were cultured in vitro at 37° C. as monolayers in Dulbecco's modification of Eagle's medium (ICN Biomedicals, Irvine, Ayrshire, UK) supplemented with 10% (w/v) fetal bovine serum, 2 mM glutamine, 100 IU penicillin/ml and 100 μg streptomycin/ml. Cells were washed in PBS and, after detachment by scraping and centrifugation (250 g, room temperature, 10 min), a single cell suspension at a final concentration of 1×10^6 cancer cells in 50 μl of PBS was obtained with a viability of at least 95% (45,46). Cell suspension were either used for cytochemical purposes or for in vivo administration to induce metastases in the liver.
(§1) Cathepsin B activity was detected in real-time in living CC531 cells and freshly prepared living rat hepatocytes after isolation by collagenase perfusion of livers of male mature rats after 24 h of starvation (47). At time point zero, cell preparations were diluted 20-fold in PBS containing either 10 μM (Z-Arg)^2 -cresyl violet (Enzyme Systems Products, Dublin, Calif.) as fluorogenic substrate for cathepsin B (48) or 10 μM substrate and 20 μM FMK (Protek, Dublin, Calif.), as selective cathepsin B inhibitor (40,41). The fluorogenic substrate is not fluorescent but after proteolytic cleavage, liberated cresyl violet is fluorescent. Synthesis of the substrate is described elsewhere in Ref. 48. The substrate was dissolved first in dimethyl formamide (final concentration in the incubation medium was 1% (v/v)). An aliquot of 100 μl of the cell suspensions was brought into a well formed by a stainless steel ring attached to a glass slide (49). Images of cells were captured in real-time with a Leica CSLM fitted to a Leica Fluovert inverted microscopic equipped with a PL APO oil-immersion objective (×63, NA 1.40). Excitation was performed at a wavelength of 560 nm and fluorescence was captured at greater than 580 nm. Excitation with the use of green light is harmless to living cells. The pinhole aperture was set at 100 giving an optimized image (50). With fixed pinhole, filter combination and a laser power setting adjusted to give minimal fading, the photomultiplier gain and photometric offset were optimized. Cells were subjected to optical serial sectioning after each 60 s of incubation up to 300 s. Images in the X-Y plane were recorded with intervals of 0.5 μm in the Z direction. For analysis, each optical section was averaged eight times. Images were recorded in a 512×512 pixel format. The size of each pixel represented 0.015 μm^2 in the object. […]

cathepsin B [2] = biological target: T1, cathepsin B; assay: Cathepsin B activity in living rat hepatocytes (CSLM, (Z-Arg)^2 -cresyl violet); assay type: cell-based; conditions: living rat hepatocyte, 10 μM substrate (printed μm), 5 min, PBS
Protocol: as §1, with “Excitation with the use of green light is harmless to living cells. The pinhole aperture was set at 100 giving an optimized image (50). With fixed pinhole, filter combination and a laser power setting adjusted to give minimal fading, the photomultiplier gain and photometric offset were optimized. Cells were subjected to optical serial sectioning after each 60 s of incubation up to 300 s.” left out, “For analysis, each optical section was averaged eight times.” left out, “format.” for “format. The size of each pixel represented 0.015 μm^2 in the object.”

[3] = tested on: living hepatocytes and colon cancer cells; assay: Penetration of cresyl violet-based substrates into living cells; assay type: cell-based, rat
Protocol: Cathepsin B activity was detected in real-time in living CC531 cells and freshly prepared living rat hepatocytes after isolation by collagenase perfusion of livers of male mature rats after 24 h of starvation (47). At time point zero, cell preparations were diluted 20-fold in PBS containing either 10 μM (Z-Arg)^2 -cresyl violet (Enzyme Systems Products, Dublin, Calif.) as fluorogenic substrate for cathepsin B (48) or 10 μM substrate and 20 μM FMK (Protek, Dublin, Calif.), as selective cathepsin B inhibitor (40,41). The fluorogenic substrate is not fluorescent but after proteolytic cleavage, liberated cresyl violet is fluorescent. Synthesis of the substrate is described elsewhere in Ref. 48. The substrate was dissolved first in dimethyl formamide (final concentration in the incubation medium was 1% (v/v)). An aliquot of 100 μl of the cell suspensions was brought into a well formed by a stainless steel ring attached to a glass slide (49). […] Excitation was performed at a wavelength of 560 nm and fluorescence was captured at greater than 580 nm. […] Images in the X-Y plane were recorded with intervals of 0.5 μm in the Z direction. […] Images were recorded in a 512×512 pixel format. […]
The localization properties of cresyl violet in individual cells were investigated using confocal microscopy. […] The fluorescence is localized only in patches at the plasma membrane. […]

T1 sequence (P00787 80-333): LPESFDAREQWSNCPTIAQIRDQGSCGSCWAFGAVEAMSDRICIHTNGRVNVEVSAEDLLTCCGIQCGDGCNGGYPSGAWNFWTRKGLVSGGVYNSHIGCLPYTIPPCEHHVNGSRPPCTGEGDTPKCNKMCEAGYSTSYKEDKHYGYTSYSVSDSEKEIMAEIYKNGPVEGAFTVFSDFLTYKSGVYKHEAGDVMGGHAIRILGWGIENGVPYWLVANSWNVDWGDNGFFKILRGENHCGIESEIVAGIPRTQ

cell penetration [3]: penetrate living cells
SMILES: N=C(N)NCCC[C@H](NC(=O)OCc1ccccc1)C(=O)NC1=CC2Oc3cc(NC(=O)[C@H](CCCNC(=N)N)NC(=O)OCc4ccccc4)ccc3N=C2c2ccccc21 (stereo partly drawn) [[Z-Arg]^2-cresyl violet]
localization of cathepsin B activity (cresyl violet fluorescence) (cathepsin B [1]): found at the plasma membrane (large arrowheads) and intracellularly | localization of cathepsin B activity (cresyl violet fluorescence) (cathepsin B [2]): present in granular lysosome-like intracellular compartments
